In brackets after ≈: the same amount, converted by molar mass. Counter-ions that a name gives are not always drawn. Like-named read-outs stand apart in the source and are kept apart here.
Experiments:
[1] = system: E coli carrying specific resistance determinants; experiment: MIC by broth microdilution, E coli carrying specific resistance determinants; type: cell-based; settings: for MIC: Escherichia coli
[2] = system: M. smegmatis SZ380; experiment: MIC by broth microdilution, M. smegmatis; settings: Mycolicibacterium smegmatis
[3] = system: M. abscessus; experiment: MIC by broth microdilution, M. abscessus; type: cell-based; settings: Mycobacteroides abscessus
[4] = system: Enterobacter cloacae AG290; experiment: MIC by broth microdilution, Enterobacter cloacae; type: cell-based; settings: strain AG290 Enterobacter cloacae; read-out: MIC AG290 E. cloacae
[5] = system: MRSA; experiment: MIC by broth microdilution, MRSA isolates; type: cell-based; settings: Staphylococcus aureus, MRSA, Table 1 (Example 3)
[6] = system: E coli wild type; experiment: MIC by broth microdilution, wild type E coli; type: cell-based; settings: for MIC: Escherichia coli
[7] = system: mitochondrial ribosome (human chimeric); type: biochemical; settings: for Selectivity for Binding to the Bacterial Ribosome over the Mitochondrial Ribosome: Table 3 (Example 3); for IC50: mitochondrial, Table 4 (Example 3), read-out: IC50 Mit
Excerpt: (§1) The antiribosomal activity of these compounds was investigated with cell-free translation assays using both wild type bacterial ribosomes and hybrid ribosomes carrying eukaryotic decoding A sites enabling the prediction of selectivity.

[8] = system: cytosolic ribosome (human chimeric); type: biochemical; settings: for Selectivity for Binding to the Bacterial Ribosome over the Cytosolic Ribosome: Table 3 (Example 3); for IC50: cytosolic, Table 4 (Example 3), read-out: IC50 Cyt
Excerpt: as §1

[9] = system: A1555G mutant mitochondrial ribosome (human chimeric); experiment: in-vitro translation assay, human chimeric ribosomes, A1555G mutant mitochondrial decoding site; type: biochemical; settings: Table 3 (Example 3)
Excerpt: as §1

[10] = system: wild type bacterial ribosomes; experiment: in-vitro translation assay, bacterial ribosomes; type: biochemical; settings: for IC50: bacterial ribosome, Table 4 (Example 3), read-out: IC50 Bac; for selectivity for the bacterial ribosome over mitochondrial (wild type, A1555G mutant) and cytosolic ribosomes, in words: compared with the parent compound
Excerpt: as §1

[11] = system: P aeruginosa; experiment: MIC by broth microdilution, P aeruginosa isolates; type: cell-based, Pseudomonas aeruginosa; settings: strain AG220 Pseudomonas aeruginosa ATCC27853; read-out: MIC AG220 P. aerugin
[12] = system: Klebsiella pneumonia AG215; experiment: MIC by broth microdilution, Klebsiella pneumonia; type: cell-based; settings: Klebsiella pneumoniae; strain AG215 Klebsiella pneumonia; read-out: MIC AG215 K. pneumon
[13] = system: Acinetobacter baumannii pittii AG225; experiment: MIC by broth microdilution, Acinetobacter baumannii; type: cell-based; settings: strain AG225 Acinetobacter baumannii pittii
[14] = read-out: MIC E coli AG106 AAC(2′)
[15] = read-out: MIC E. coli AAC(2′) AG106
[16] = read-out: MIC E. coli AAC(2′) pH434
[17] = read-out: MIC E. coli AG106 AAC(2′)-Ia
[18] = read-out: MIC E. coli pGB2armA armA
[19] = read-out: MIC E. coli pH434 AAC(2′)-Ib
[20] = SZ380, read-out: MIC M. smegmatis SZ380 WT, SZ380 WT, Table 5 (Example 3)
[21] = SZ380, read-out: MIC SZ380 M. smegmatis, strain SZ380 Mycobacterium smegmatis
[22] = ATCC19977, ATCC 19977 WT, Table 5 (Example 3), read-out: MIC M. abscessus ATCC 19977 WT
[23] = read-out: MIC M. abscessus engineered Δeis2
[24] = ATCC, Table 4 (Example 3), read-out: MIC M. abscessus ATCC
[25] = Clin. Isol., Table 4 (Example 3), read-out: MIC M. abscessus Clin. Isol.
[26] = clinical isolate AG038, read-out: MIC MRSA AG038
[27] = clinical isolate AG039, read-out: MIC MRSA AG039
[28] = clinical isolate AG042, read-out: MIC MRSA AG042
[29] = AG104 Wild type, Table 2 (Example 3), read-out: MIC E coli AG104 Wild type
[30] = ATCC25922, strain AG212 E. coli (ATCC25922), read-out: MIC AG212 E. coli
[31] = WT, Table 4 (Example 3), read-out: MIC E. coli WT
[32] = WT, Table 5 (Example 3), read-out: MIC E. coli WT
[33] = clinical isolate AG001, Table 1 (Example 3), read-out: MIC E coli AG001
[34] = clinical isolate AG003, Table 1 (Example 3), read-out: MIC E coli AG003
[35] = clinical isolate AG055, Table 1 (Example 3), read-out: MIC E coli AG055

Compound	MIC [1, 14] [µg/mL]	MIC [1, 15] [µg/mL]	MIC [1, 16] [µg/mL]	MIC [1, 17] [µg/mL]	MIC [1, 18] [µg/mL]	MIC [1, 19] [µg/mL]	MIC [2, 20] [µg/mL]	MIC [2, 21] [µg/mL]	MIC [3, 22] [µg/mL]	MIC [3, 23] [µg/mL]	MIC [3, 24] [µg/mL]	MIC [3, 25] [µg/mL]	MIC [4] [µg/mL]	MIC [5, 26] [µg/mL]	MIC [5, 27] [µg/mL]	MIC [5, 28] [µg/mL]	MIC [6, 29] [µg/mL]	MIC [6, 30] [µg/mL]	MIC [6, 31] [µg/mL]	MIC [6, 32] [µg/mL]	other results
CNC1C(OC2C(N)CC(N)C(O)C2OC2OC(CO)C(OC3OC(CN)C(O)C(O)C3N)C2O)OC(CO)C(O)C1O (stereo not shown) [Compound 115, 2′-N-Methyl-paromomycin acetate salt]	4 to 8	4	8	4	4 to 8	8	4 to 8	4 to 8	16	0.5	16	32	2	8	> 128	> 128	2 to 4	4	2 to 4	2 to 4	MIC ([5]; clinical isolate AG044, read-out: MIC MRSA AG044): 4 µg/mL; MIC [6, 33]: 16 µg/mL; MIC [6, 34]: 16 µg/mL; MIC [6, 35]: 16 µg/mL; Selectivity for Binding to the Bacterial Ribosome over the Mitochondrial Ribosome [7]: 3151; IC50 [7]: 95 µM; Selectivity for Binding to the Bacterial Ribosome over the Cytosolic Ribosome [8]: 1264; IC50 [8]: 38 µM; Selectivity for Binding to the Bacterial Ribosome over the Mutant Mitochondrial Ribosome [9]: 1134; IC50 [10]: 0.03 µM; selectivity for the bacterial ribosome over mitochondrial (wild type, A1555G mutant) and cytosolic ribosomes, in words [10]: increased selectivity for the bacterial ribosome; MIC [11]: > 64 µg/mL; MIC [12]: 2 µg/mL; MIC [13]: 4 µg/mL
NCC1OC(OC2C(CO)OC(OC3C(O)C(N)CC(N)C3OC3OC(CN)C(O)C(O)C3NC=O)C2O)C(N)C(O)C1O (stereo not shown) [Compound 182, 2′-N-Formamido-neomycin]	2 (≈ 3.11 µM)	2 (≈ 3.11 µM)	8 to 16 (≈ 12.4 to 24.9 µM)	2 (≈ 3.11 µM)	8 (≈ 12.4 µM)	8 to 16 (≈ 12.4 to 24.9 µM)	1 (≈ 1.56 µM)	1 (≈ 1.56 µM)	16 (≈ 24.9 µM)	0.5 (≈ 0.778 µM)	16 (≈ 24.9 µM)	32 (≈ 49.8 µM)	2 (≈ 3.11 µM)	2 to 4 (≈ 3.11 to 6.22 µM)	> 32	> 32	2 to 4 (≈ 3.11 to 6.22 µM)	4 (≈ 6.22 µM)	2 (≈ 3.11 µM)	2 (≈ 3.11 µM)	effect of the AAC(2′) resistance determinant, in words ([1]; AAC(2′)): not susceptible to deactivation by AAC(2′); MIC ([6]; AG006 Wild type, Table 2 (Example 3), read-out: MIC E coli AG006 Wild type): 2 µg/mL (≈ 3.11 µM); MIC [6, 33]: 4 to 8 µg/mL (≈ 6.22 to 12.4 µM); MIC [6, 34]: 4 to 8 µg/mL (≈ 6.22 to 12.4 µM); MIC [6, 35]: 2 µg/mL (≈ 3.11 µM); antibacterial activity, in words ([6]; MRSA and E coli, compared with the parent compound): retains most of the activity of the parent; Selectivity for Binding to the Bacterial Ribosome over the Mitochondrial Ribosome [7]: 463; IC50 [7]: 54 µM; Selectivity for Binding to the Bacterial Ribosome over the Cytosolic Ribosome [8]: 1093; IC50 [8]: 127 µM; Selectivity for Binding to the Bacterial Ribosome over the Mutant Mitochondrial Ribosome [9]: 108; IC50 [10]: 0.12 µM; selectivity for the bacterial ribosome over mitochondrial (wild type, A1555G mutant) and cytosolic ribosomes, in words [10]: increased selectivity for the bacterial ribosome; MIC [11]: > 64 µg/mL; MIC [12]: 1 to 2 µg/mL (≈ 1.56 to 3.11 µM); MIC [13]: 2 µg/mL (≈ 3.11 µM)

Source: US11466044B2 (WAYNE STATE UNIVERSITY, priority 2017, dated 2022)
